Laboratory results taken from ChEMBL document CHEMBL1149494, “Synthesis and structure-activity relationships of retro bis-aminopyrrolidine urea (rAPU) derived small-molecule antagonists of the melanin-concentrating hormone receptor-1 (MCH-R1). Part 2” (Bioorg Med Chem Lett, 2006).

Legend:
Format in all cases: ADME, organism-based
[1] = species: Rattus norvegicus; assay: Drug level in rat plasma; conditions: in vivo
[2] = species: Rattus norvegicus; assay: Drug level in rat brain; conditions: in vivo
[3] = Ratio of drug level in rat brain against plasma; conditions: brain and plasma, read-out: BPR

Compound	Drug uptake [1]	Drug uptake [2]	Kp [3]
CCc1ccc(-c2ccc(C(=O)N(C)[C@H]3CCN(C(=O)N4CC[C@@H](NC5CCOCC5)C4)C3)cc2)cc1	14.5 ng/g	5.1 ng/g	0.4
CCc1ccc(-c2ccc(C(=O)N(C)[C@H]3CCN(C(=O)N4CC[C@@H](N5CCCCC5)C4)C3)cc2)cc1	6.2 ng/g	38.3 ng/g	6.5
CCc1ccc(-c2ccc(C(=O)N(C)[C@H]3CCN(C(=O)N4CC[C@@H](NC5CCOCC5)C4)C3)s2)cc1	30.5 ng/g	17.3 ng/g	0.6
CCc1ccc(-c2ccc(C(=O)N(C)[C@H]3CCN(C(=O)N4CC[C@@H](N(C)C5CCOCC5)C4)C3)s2)cc1	6.7 ng/g	21.8 ng/g	3.4
